Experimental data taken from US7335723B2, “Melanin-concentrating hormone antagonists” (priority 2001, dated 2008).
Where a SMILES comes first, the peptide text is derived from it. Bridges are numbered along the chain shown (N, C = ends). [ ]: non-standard residue; d: D form. The star is where a group is joined. Pentanoyl(5-guanidino) = NC(N)=NCCCCC(=O)*; dNle = CCCC[C@@H](N)C(=O)O; Ava = NCCCCC(=O)O; βAla = NCCC(=O)O

Assays:
human MCH-1R = human MCH-1R (Homo sapiens, UniProt Q99705); test: MCH-1R binding assay, inhibition of [125I]-human MCH binding to membranes
Procedure: Cell membranes were prepared on ice. Each T-75 flask was rinsed twice with 10 ml of Enzyme-free Cell Dissociation Buffer (Specialty Media, Lavallette, N.J.), and the cell monolayer was detached in an additional 10 ml of Enzyme-free Cell Dissociation Buffer by incubation at room temperature for 10 minutes. Dissociated cells were centrifuged (500×g for 10 minutes at 4° C.), resuspended in 5 ml homogenization buffer (10 mM Tris-HCl, pH 7.4, 0.01 mM Pefabloc, 10 μM phosphoramidon, 40 μg/ml bacitracin) and then homogenized using a glass homogenizer (10-15 strokes). The homogenate was centrifuged for 10 minutes (1,000×g at 4° C.). The resulting supernatant was then centrifuged at 38,700×g for 15 minutes at 4° C. Pelleted membranes were resuspended (passed through 25 gauge needle 5 times), snap-frozen on liquid nitrogen, and stored at −80° C. until use.
Bound radioligand was separated by rapid vacuum filtration (Packard Filtermate 96-well cell harvester) through GF/C filters pretreated for 1 hour with 1% polyethylenimine. After application of the membrane suspension to the filter, the filters were washed 3 times with 3 ml each of ice-cold 50 mM Tris-HCl, pH 7.4, 10 mM MgCl2, 2 mM EDTA, 0.04% Tween 20 and the bound radioactivity on the filters was quantitated by scintillation counting (TopCount device).
For the SPA-based assay, WGA-PVT beads (NEN Life Sciences Products) were resuspended in Dulbecco's PBS with calcium and magnesium (500 mg beads in 4 ml PBS). […] The suspension was mixed gently for 20 minutes, 12.3 ml of assay buffer and protease inhibitors were added (final concentration given): 2 μg/ml leupeptin, 10 μM phosphoramidon, 40 μg/ml bacitracin, 5 μg/ml aprotinin, 0.1 mM Pefabloc.
Coated beads were kept on ice until use.

rat MCH-1R = rat MCH-1R (Rattus norvegicus, UniProt P97639); test: Aequorin bioluminescence functional assay, MCH-1R agonist activity; conditions: for MCH-1R Agonist Activation %: 293-AEQ17 cells expressing rat MCH-1R
human MCH-2R = human MCH-2R (Homo sapiens, UniProt Q969V1); test: Aequorin bioluminescence functional assay, MCH-2R agonist activity; conditions: for MCH-2R Agonist Activation %: 293-AEQ17 cells expressing human MCH-2R
Chain of human MCH-2R (Q969V1 whole entry): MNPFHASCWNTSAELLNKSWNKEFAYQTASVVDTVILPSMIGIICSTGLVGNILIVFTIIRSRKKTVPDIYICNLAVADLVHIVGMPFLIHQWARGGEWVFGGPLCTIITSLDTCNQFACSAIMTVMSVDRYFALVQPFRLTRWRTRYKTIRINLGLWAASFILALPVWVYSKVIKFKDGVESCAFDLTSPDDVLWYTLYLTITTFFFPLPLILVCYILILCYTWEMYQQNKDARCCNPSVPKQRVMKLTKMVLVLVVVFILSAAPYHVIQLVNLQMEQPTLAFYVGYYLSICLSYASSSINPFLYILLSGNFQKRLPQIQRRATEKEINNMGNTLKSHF

Chain of rat MCH-1R (P97639 whole entry): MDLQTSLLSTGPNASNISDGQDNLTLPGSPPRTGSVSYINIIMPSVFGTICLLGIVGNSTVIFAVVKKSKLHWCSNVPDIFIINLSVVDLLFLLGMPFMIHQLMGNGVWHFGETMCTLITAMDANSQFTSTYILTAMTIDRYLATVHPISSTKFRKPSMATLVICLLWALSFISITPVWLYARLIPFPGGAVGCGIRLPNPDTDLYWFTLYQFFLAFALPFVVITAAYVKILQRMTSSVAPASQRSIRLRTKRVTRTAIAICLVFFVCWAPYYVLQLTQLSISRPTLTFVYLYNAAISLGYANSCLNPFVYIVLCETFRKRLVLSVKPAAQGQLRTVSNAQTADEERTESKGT
Chain of human MCH-1R (Q99705 whole entry): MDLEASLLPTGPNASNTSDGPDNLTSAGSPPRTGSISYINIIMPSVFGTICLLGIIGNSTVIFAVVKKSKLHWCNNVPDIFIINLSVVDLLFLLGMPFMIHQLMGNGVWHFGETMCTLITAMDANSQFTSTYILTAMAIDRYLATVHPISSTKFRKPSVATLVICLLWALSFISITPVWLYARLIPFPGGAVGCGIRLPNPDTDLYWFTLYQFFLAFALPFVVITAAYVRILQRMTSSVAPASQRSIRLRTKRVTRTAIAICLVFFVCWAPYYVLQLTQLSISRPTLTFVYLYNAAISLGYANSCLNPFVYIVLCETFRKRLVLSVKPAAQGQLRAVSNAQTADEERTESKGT

Row | Compound | IC50 (human MCH-1R) [nM] | EC50 (rat MCH-1R) [nM] | MCH-1R Agonist Activation % (rat MCH-1R) [%] | EC50 (human MCH-2R) [nM] | MCH-2R Agonist Activation % (human MCH-2R) [%] | MCH-1R Binding, % @ concentration (human MCH-1R; @ 10 (concentration unit not given), in the IC50 (nM) column) [% @ 10]
1 | CCCC[C@H]1NC(=O)[C@H](CC(C)C)NC(=O)[C@H](CCSC)NC(=O)[C@@H](NC(=O)[C@H](CCCNC(=N)N)NC(C)=O)CSSC[C@@H](C(N)=O)NC(=O)CCCCNC(=O)CCCCNC(=O)[C@H](Cc2ccc(O)cc2)NC(=O)[C@H](C(C)C)NC(=O)[C@H](CCCNC(=N)N)NC1=O [SEQ. ID. NO. 26] (Ac-RCML[dNle]RVY[Ava][Ava]C-NH2; disulfide 2-11; C-terminus assumed) | 223 | 544 | 43 | > 10000 | 91 | 
2 | CSCC[C@@H]1NC(=O)[C@@H](NC(=O)[C@@H](CCCNC(=N)N)NC(C)=O)CSSC[C@@H](C(N)=O)NC(=O)CCCCNC(=O)CCCCNC(=O)[C@H](Cc2ccc(O)cc2)NC(=O)[C@H](C(C)C)NC(=O)[C@H](CCCNC(=N)N)NC(=O)CNC(=O)[C@H](CC(C)C)NC1=O [SEQ. ID. NO. 10] (Ac-[dR]CMLGRVY[Ava][Ava]C-NH2; disulfide 2-11 (inferred); C-terminus assumed) | 19.5 | 1300 | 28 | > 10000 | 18 | 
3 | CSCC[C@@H]1NC(=O)[C@@H](NC(=O)[C@H](CCCNC(=N)N)NC(C)=O)CSSC[C@@H](C(N)=O)NC(=O)CCNC(=O)CCNC(=O)[C@H](Cc2ccc(O)cc2)NC(=O)[C@H](C(C)C)NC(=O)[C@H](CCCNC(=N)N)NC(=O)CCNC(=O)CCNC1=O [SEQ. ID. NO. 31] (Ac-RCM[βAla][βAla]RVY[βAla][βAla]C-NH2; disulfide 2-11) |  | > 10000 | 3 | > 10000 | 6 | 76
4 | CSCC[C@@H]1NC(=O)[C@@H](NC(=O)[C@H](CCCNC(=N)N)NC(C)=O)CSSC[C@@H](C(N)=O)NC(=O)CCCCNC(=O)CCCCNC(=O)[C@H](Cc2ccc(O)cc2)NC(=O)[C@H](C(C)C)NC(=O)[C@H](CCCNC(=N)N)NC(=O)[C@H]2CCCN2C(=O)[C@H](CC(C)C)NC1=O [SEQ. ID. NO. 28] (Ac-RCML[dP]RVY[Ava][Ava]C-NH2; disulfide 2-11 (inferred); C-terminus assumed) | 700 |  |  | > 10000 | 7 | 
5 | CSCC[C@@H]1NC(=O)[C@@H](NC(=O)CCCCNC(=N)N)CSSC[C@@H](C(N)=O)NC(=O)CCCCNC(=O)CCCCNC(=O)[C@H](Cc2ccc(O)cc2)NC(=O)[C@H](C(C)C)NC(=O)[C@H](CCCNC(=N)N)NC(=O)CNC1=O [SEQ. ID. NO. 23] ({Pentanoyl(5-guanidino)}-CMGRVY[Ava][Ava]C-NH2; disulfide 1-9) | > 1000 | > 10000 | 0.1 | > 10000 | 26 | 
6 | CC(C)[C@@H]1NC(=O)[C@H](CCCNC(=N)N)NC(=O)CCCCNC(=O)CCCCNC(=O)CCCCNC(=O)[C@@H](NC(=O)CCCCNC(=N)N)CSSC[C@@H](C(N)=O)NC(=O)CCCCNC(=O)CCCCNC(=O)[C@H](Cc2ccc(O)cc2)NC1=O [SEQ. ID. NO. 36] | > 1000 | > 10000 | 0.1 | > 10000 | 24 | 
7 | CSCC[C@@H]1NC(=O)[C@@H](NC(=O)[C@H](CCCNC(=N)N)NC(=O)[C@H](CC(C)C)NC(=O)[C@H](CCSC)NC(=O)[C@H](CC(=O)O)NC(=O)[C@H](Cc2ccccc2)NC(=O)[C@@H](N)CC(=O)O)CSSC[C@@H](C(=O)N[C@@H](Cc2c[nH]c3ccccc23)C(=O)N[C@@H](CCC(N)=O)C(=O)N[C@H](C(=O)O)C(C)C)NC(=O)[C@@H]2CCCN2C(=O)[C@H](CCCNC(=N)N)NC(=O)[C@H](Cc2ccc(O)cc2)NC(=O)[C@H](C(C)C)NC(=O)[C@H](CCCNC(=N)N)NC(=O)CNC(=O)[C@H](CC(C)C)NC1=O [hMCH, reference compound] |  | 30.9 | 100 |  | 100 | 
8 | CSCC[C@@H]1NC(=O)[C@@H](NC(=O)CCCCNC(=N)N)CSSC[C@@H](C(N)=O)NC(=O)CNC(=O)[C@H](Cc2ccc(O)cc2)NC(=O)[C@H](C(C)C)NC(=O)[C@H](CCCNC(=N)N)NC(=O)CCCCNC(=O)CCCCNC1=O [SEQ. ID. NO. 6] ({Pentanoyl(5-guanidino)}-CM[Ava][Ava]RVYGC-NH2; disulfide 1-9) | > 1000 | > 10000 | 0.1 | > 10000 | 25 | 
9 | CSCC[C@@H]1NC(=O)[C@@H](NC(=O)[C@H](CCCNC(=N)N)NC(C)=O)CSSC[C@@H](C(N)=O)NC(=O)CCCCNC(=O)CCCCNC(=O)[C@H](Cc2ccc(O)cc2)NC(=O)[C@H](C(C)C)NC(=O)[C@H](CCCNC(=N)N)NC(=O)CNC(=O)[C@H](CC(C)C)NC1=O [SEQ. ID. NO. 8] (Ac-RCMLGRVY[Ava][Ava]C-NH2; disulfide 2-11; C-terminus assumed) | 6.6 | 406 | 75 | > 10000 |  | 
10 | CSCC[C@@H]1NC(=O)[C@H](NC(=O)CCCCNC(=N)N)CSSC[C@@H](C(N)=O)NC(=O)CCCCNC(=O)CCCCNC(=O)[C@H](Cc2ccc(O)cc2)NC(=O)[C@H](C(C)C)NC(=O)[C@H](CCCNC(=N)N)NC(=O)CNC(=O)[C@H](CC(C)C)NC1=O [SEQ. ID. NO. 25] | 66 | > 10000 | 0.1 | > 10000 | 25 | 
11 | CC(=O)N[C@@H](CCCNC(=N)N)C(=O)N[C@H]1CSSC[C@@H](C(N)=O)NC(=O)CCCCNC(=O)CCCCNC(=O)[C@H](Cc2ccc(O)cc2)NC(=O)[C@H](C(C)C)NC(=O)[C@H](CCCNC(=N)N)NC(=O)CNC(=O)[C@H](CC(C)C)NC(=O)[C@H](C)NC1=O [SEQ. ID. NO. 22] (Ac-RCALGRVY[Ava][Ava]C-NH2; disulfide 2-11; C-terminus assumed) | > 1000 | > 10000 | 0.1 | 1830 | 25 | 
12 | CSCC[C@@H]1NC(=O)[C@@H](NC(=O)[C@H](CCCNC(=N)N)NC(C)=O)CSSC[C@@H](C(N)=O)NC(=O)[C@@H]2CCCN2C(=O)[C@H](CCCNC(=N)N)NC(=O)[C@H](Cc2ccc(O)cc2)NC(=O)[C@H](C(C)C)NC(=O)[C@H](CCCNC(=N)N)NC(=O)CNC(=O)[C@H](CC(C)C)NC1=O [SEQ. ID. NO. 2] |  | 20 | 99 |  |  | 
13 | C[C@@H]1NC(=O)[C@@H](NC(=O)CCCCNC(=N)N)CSSC[C@@H](C(=O)O)NC(=O)CCCCNC(=O)CCCCNC(=O)[C@H](Cc2ccc(O)cc2)NC(=O)[C@H](C)NC(=O)[C@H](CCCNC(=N)N)NC(=O)CCCCNC(=O)CCCCNC1=O [SEQ. ID. NO. 34] ({Pentanoyl(5-guanidino)}-CA[Ava][Ava]RAY[Ava][Ava]C-OH; disulfide 1-10) | > 1000 | > 10000 | 0.1 | > 10000 | 28 | 
14 | CSCC[C@@H]1NC(=O)[C@@H](NC(=O)[C@@H](CCCNC(=N)N)NC(C)=O)CSSC[C@@H](C(N)=O)NC(=O)[C@@H]2CCCN2C(=O)[C@H](CCCNC(=N)N)NC(=O)[C@H](Cc2ccc(O)cc2)NC(=O)[C@H](C(C)C)NC(=O)[C@H](CCCNC(=N)N)NC(=O)CCCCNC(=O)CCCCNC1=O [SEQ. ID. NO. 4] (Ac-[dR]CM[Ava][Ava]RVYRPC-NH2; disulfide 2-11 (inferred); C-terminus assumed) | 3.7 | 1080 | 72 | > 10000 | 7 | 
